Assay results reported in patent US9422311B2, “Compounds for the treatment of hepatitis C” (priority 2012, dated 2016).
Where two headings read alike, the source gives them in different places.

Tested on: HCV pseudoparticles, genotype 1a (H77C) E1 and E2 envelope
Assay: HCV pseudoparticle infection assay (luciferase, Huh7 cells)
Assay type: cell-based, hepatitis C virus (HCV) genotype 1a
Conditions: Hepatitis C virus, Huh-7, 48 h, read-out: EC50 (nM) 1a (H77C), HCV pseudoparticles genotype 1a (H77C), Huh7 cells, luciferase 2 days after infection

Row | SMILES | EC50 (class symbol) | EC50 (numeric value)
1 | C=C1COc2ccc(cc2)CNc2nc(nc(OCC(F)(F)F)n2)Nc2ccc(cc2)C(=O)NCC(C)(C)CN(C(=O)C(=O)OCC)C1 [Example 1001] | 0.1 to 100 nM | 0.629 nM
2 | C=C1COc2ccc(cc2)CNc2nc(nc(OCC(F)(F)F)n2)Nc2ccc(cc2)C(=O)NCC(C)(C)CN(C(=O)C(=O)O)C1 [Example 1002] | 0.1 to 100 nM | 5.73 nM
3 | C=C1COc2ccc(cc2)CNc2nc(nc(OCC(F)(F)F)n2)Nc2ccc(cc2)C(=O)NCC(C)(C)CN(C(=O)C(=O)NCC2CC2)C1 [Example 1003] | 0.1 to 100 nM | 
4 | C=C1COc2ccc(cc2)CNc2nc(nc(OCC(F)(F)F)n2)Nc2ccc(cc2)C(=O)NCC(C)(C)CN(C(=O)C(=O)Nc2ccc(F)cc2)C1 [Example 1004] | 0.1 to 100 nM | 
5 | CC1(C)CNC(=O)c2ccc(nc2)Nc2cc(nc(OCC(F)(F)F)n2)NCc2ccc(cc2)OCCCN(C(=O)C(=O)Nc2ccc(Cl)c(F)c2)C1 [Example 2003] | 0.1 to 100 nM | 0.105 nM
6 | CC1(C)CNC(=O)c2ccc(nc2)Nc2cc(nc(OCC(F)(F)F)n2)NCc2ccc(cc2)OCCCN(C(=O)C(=O)Nc2ccc(C#N)cc2)C1 [Example 2004] | 0.1 to 100 nM | 
7 | CN(C)C(=O)C(=O)N1CCCOc2ccc(cc2Cl)CNc2nc(nc(OCC(F)(F)F)n2)Nc2ccc(cc2)C(=O)NCC(C)(C)C1 [Example 3001] | 0.1 to 100 nM | 
8 | CC1(C)CNC(=O)c2ccc(cc2)Nc2nc(nc(OCC(F)(F)F)n2)NCc2ccc(c(Cl)c2)OCCCN(C(=O)C(N)=O)C1 [Example 3002] | 0.1 to 100 nM | 
9 | Cc1ccc(NC(=O)C(=O)N2CCCOc3ccc(cc3Cl)CNc3nc(nc(OCC(F)(F)F)n3)Nc3ccc(cc3)C(=O)NCC(C)(C)C2)cc1 [Example 3003] | 0.1 to 100 nM | 
10 | CC1(C)CNC(=O)c2ccc(cc2)Nc2nc(nc(OCC(F)(F)F)n2)NCc2ccc(c(Cl)c2)OCCCN(C(=O)C(=O)N2CCOCC2)C1 [Example 3005] | 0.1 to 100 nM | 
11 | CC1(C)CNC(=O)c2ccc(cc2)Nc2nc(nc(OCC(F)(F)F)n2)NCc2ccc(c(Cl)c2)OCCCN(C(=O)C(=O)Nc2nncs2)C1 [Example 3006] | 0.1 to 100 nM | 
12 | CC1(C)CNC(=O)c2ccc(cc2)Nc2nc(nc(OCC(F)(F)F)n2)NCc2ccc(c(Cl)c2)OCCCN(C(=O)C(=O)Nc2cccc(F)c2)C1 [Example 3007] | 0.1 to 100 nM | 
13 | CC1(C)CNC(=O)c2ccc(cc2)Nc2nc(nc(OCC(F)(F)F)n2)NCc2ccc(c(Cl)c2)OCCCN(C(=O)C(=O)Nc2ccc(F)cc2)C1 [Example 3008] | 0.1 to 100 nM | 2.42 nM
14 | CC1(C)CNC(=O)c2ccc(cc2)Nc2nc(nc(OCC(F)(F)F)n2)NCc2ccc(c(Cl)c2)OCCCN(C(=O)C(=O)Nc2ccccc2)C1 [Example 3009] | 0.1 to 100 nM | 
15 | CC1(C)CNC(=O)c2ccc(cc2)Nc2nc(nc(OCC(F)(F)F)n2)NCc2ccc(c(Cl)c2)OCCCN(C(=O)C(=O)Nc2cc(F)cc(F)c2)C1 [Example 3010] | 0.1 to 100 nM | 
16 | CC1(C)CNC(=O)c2ccc(cc2)Nc2nc(nc(OCC(F)(F)F)n2)NCc2ccc(c(Cl)c2)OCCCN(C(=O)C(=O)NC2CCCCC2)C1 [Example 3012] | 0.1 to 100 nM | 
17 | CC1(C)CNC(=O)c2ccc(cc2)Nc2nc(nc(OCC(F)(F)F)n2)NCc2ccc(c(Cl)c2)OCCCN(C(=O)C(=O)N2CCc3ccccc3C2)C1 [Example 3013] | 0.1 to 100 nM | 
18 | CC(C)CNC(=O)C(=O)N1CCCOc2ccc(cc2Cl)CNc2nc(nc(OCC(F)(F)F)n2)Nc2ccc(cc2)C(=O)NCC(C)(C)C1 [Example 3014] | 0.1 to 100 nM | 
19 | CNC(=O)C(=O)N1CCCOc2ccc(cc2Cl)CNc2nc(nc(OCC(F)(F)F)n2)Nc2ccc(cc2)C(=O)NCC(C)(C)C1 [Example 3015] | 0.1 to 100 nM | 
20 | CCc1nnc(NC(=O)C(=O)N2CCCOc3ccc(cc3Cl)CNc3nc(nc(OCC(F)(F)F)n3)Nc3ccc(cc3)C(=O)NCC(C)(C)C2)s1 [Example 3016] | 0.1 to 100 nM | 24 nM
21 | Cc1cc(NC(=O)C(=O)N2CCCOc3ccc(cc3Cl)CNc3nc(nc(OCC(F)(F)F)n3)Nc3ccc(cc3)C(=O)NCC(C)(C)C2)no1 [Example 3017] | 0.1 to 100 nM | 
22 | CC1(C)CNC(=O)c2ccc(cc2)Nc2nc(nc(OCC(F)(F)F)n2)NCc2ccc(c(Cl)c2)OCCCN(C(=O)C(=O)N2CCCCC2)C1 [Example 3018] | 0.1 to 100 nM | 
23 | CC1(C)CNC(=O)c2ccc(cc2)Nc2nc(nc(OCC(F)(F)F)n2)NCc2ccc(c(Cl)c2)OCCCN(C(=O)C(=O)Nc2nccs2)C1 [Example 3019] | 0.1 to 100 nM | 
24 | Cc1nnc(NC(=O)C(=O)N2CCCOc3ccc(cc3Cl)CNc3nc(nc(OCC(F)(F)F)n3)Nc3ccc(cc3)C(=O)NCC(C)(C)C2)s1 [Example 3020] | 0.1 to 100 nM | 
